# Reference: patent publication US11712436B2, “Theranostic test for antifungal treatment of inflammatory diseases” (Cornell University, priority 2017, dated 2023)
# Key:
# [1] = system: intestinal fungi; test: DSS colitis in ΔCX3CR1 mice with fungal targeting by fluconazole; assay type: in vivo; conditions: 3% DSS in drinking water, fluconazole 0.5 mg/ml in drinking water starting 4 days prior the first DSS dose, FIG. 3E-G
# Description: Cx3cr1^GFP/GFP, C57BL/6J, Cd11c-cre^+/+, Irf4^fl/fl, Cx3cr1^tm3(DTR)Litt/J (Cx3cr1^DTR), Syk^fl/fl, Cx3cr1^tm2.1(cre/ERT2)Jung/J (Cx3cr1-cre/ERT2^+/+), Batf3^−/−, Thy1.1, and OVA-specific CD4^+ (OT-II) T-cell receptor-transgenic (H-2^b) mice were purchased from the Jackson Laboratories (Bar Harbor, Me.). […]. For depletion, mice generated through such breeding (Cd11c-cre^+/− Cx3cr1^DTR mice) and the respective littermate controls (Cd11c-cre^−/− Cx3cr1^DTR) were injected for three consecutive days with 100 ng of DT i.p followed by maintenance injection every other day for the length of the experiments. Depleted mice were designated throughout the study as ΔCX3CR1 mice. Irf4^fl/fl mice were bred to hemizygous Cd11c-cre^+/− mice to allow for genetic ablation of CD11c^+ CD11b^+ CD103^+ dendritic cells (Cd11c-cre^+/− Irf4^fl/fl mice, designated throughout the study as ΔIrf4 mice) and the generation of littermate controls (Cd11c-cre^−/− Irf4^fl/fl mice). Syk^fl/fl mice were bred to Cx3cr1-cre/ERT2^+/+ to allow for the selective depletion of Syk in CX3CR1 expressing cells upon administration of tamoxifen. […]
# Cx3cr1^DTR or littermate control mice were injected with DT for three consecutive days, prior to the induction of colitis with 3% (w/v) Dextran sulfate sodium (DSS, MP Biomedicals, LLC, Aurora, Ohio) in the drinking water. […] Body weight and the presence of occult blood were assessed daily. […]
# [2] = system: most Candida species and other dimorphic fungi; conditions: when used during the onset of intestinal disease; cited from earlier work
compound,measurement,setting,value
OC(Cn1cncn1)(Cn1cncn1)c1ccc(F)cc1F [fluconazole],"intestinal disease (DSS colitis: body weight change, neutrophil infiltration in colonic LP, H&E histology)",[1],significantly ameliorated intestinal disease
same,colitis in mice with defects in antifungal immunity,[2],ameliorates colitis
